Results: patent US20030032639A1, “Composition and method for reducing adverse interactions between phenothiazine derivatives and plasma using surfactants and amino acids” (Wyeth, priority 2001, published 2003)

Assays:
[1] = promethazine hydrochloride preparation mixed with plasma in vitro, relative amount of precipitate formed; assay type: physicochemical; details: laboratory studies, ratio not stated
Text: Without being bound by any particular theory, it is believed that this precipitate formation could be related to the venous thrombosis found at the injection site, as well as the cause of other local adverse reactions involving promethazine injection. […] With a composition according to one or more of the embodiments set forth herein, it is expected that a promethazine solution given by the routes of i.v. and i.m. (intramuscular) injection would have fewer incidences of irritation and other adverse reactions at the site of injection.

[2] = after intramuscular injection; cited from earlier work
[3] = cited from earlier work

Question: With CC(CN1c2ccccc2Sc2ccccc21)N(C)C.Cl (racemic) [promethazine hydrochloride, 10H-Phenothiazine-10-ethanamine, N,N, α-trimethyl-, monohydrochloride, (±)] as the compound, how does the “precipitate formation when solution is mixed with plasma” value [1] read?
Answer: The value was “precipitates form immediately”.

Question: And the “plasma creatine kinase levels (indication of muscle irritation)” value [2]?
Answer: The value was “raise plasma creatine kinase levels”.

Question: And the “adverse reactions at the local area of injection” value ([3]; clinical case reports)?
Answer: Its value is “irritation and other serious adverse reactions at the local area of injection, particularly gangrene at the extremity of the injection site”.

Question: And the “venous thrombosis at the injection site” value ([3]; in vivo, iv)?
Answer: The value was “some incidents of venous thrombosis at the injection site”.
